According to patent US20210290680A1, “METHODS AND COMPOSITIONS FOR MODULATING CELLULAR AGING” (Dorian Therapeutics, Inc., priority 2019, published 2021):

Key:
CHLA-55 cells = test: Re-challenge cytotoxicity assay, GD2.CAR T cells; format: cell-based, human; settings: after double tumor-challenge, n=3
Experimental: Primary T cells were activated as described (Example 3), transduced with a lentivirus encoding for either a CD19.CAR or a GD2.CAR co-expressing shUSP16 #1, shUSP16 #2 or a scrambled shRNA (Control). Cells were cultured in IL-2 and sorted between days 6-13 for EGFRt. At day 16 cytotoxicity assays were performed. Briefly, cells were counted and 100,000 T cells (adjusted for EGFR expression) were plated at 1:5 Effector:Target (E:T) ratio. At 72 hours, the mixture of tumor cells and T cells were collected, stained for CD3-PE, CD8-BV510, CD19- or GD2-APC, EGFR-AF488 and Sytox and counted by flow cytometry (MACSQuant, Miltenyi Biotec) (FIGS. 30A and 30B). Counting beads (CountBright Absolute Counting beads, Invitrogen) were added before acquisition and absolute number was calculated as following (number of cell events/number of bead events)×(assigned bead count of the lot (beads/50 ul)/volume of sample (ul))=concentration of sample as cells/ul). NALM cells were used as target cells for CD19.CAR T cells and CHLA-55 cells were used as target for GD2.CAR T cells. Three different primary T cell cultures were tested for CD19 and GD2 CAR.
At day 16, regular cytotoxicity assays were also performed (Example 22). Three days post-antigen stimulation, CD19.CAR T cells were stained for EGFR-AF488 (R&D), CD3-PE, CD8-BV510, PD-1-Allophycocyanin and Lag-3 and CTLA4 (Biolegend) and acquired by MACSQuant (Miltenyi Biotec). The co-cultures we also re-challenged with the addition of fresh tumor cells. T cell killing and expansion upon double tumor-challenge was assessed after three days.

[1] = test system: CHLA-55 neuroblastoma cell lines; test: In vivo anti-tumor activity of GD2.CAR T cells (circulating Gaussia luciferase); settings: immunocompromised mice, one million GD2.CAR T cells via tail vein, n=4-6
Experimental: Primary T cells were activated as described (Example 3), transduced with a lentivirus encoding for either a CD19.CAR or a GD2.CAR co-expressing shUSP16 #1, shUSP16 #2, or a scrambled shRNA (Control). Cells were cultured in IL-2 and sorted between days 6-13 for EGFRt. At day 15 cells were frozen down (to mimic the clinic setting) and thawed d−1 before injection in immunocompromised mice. Immunocompromised mice (NCG (NOD CRISPR Prkdc II2r Gamma) were provided by Charles River and NSG (NOD.Cg-PrkdcIL2rg<tm1Wj1>/SzJ) were purchased from Jackson Laboratory). CHLA-55 neuroblastoma cell lines were transduced with Gaussia Luciferase and one million cells were injected via tail vein at d−7 (day minus 7).
One million of GD2.CAR T cells were infused via tail vain at day 0 and mice were weighted, and blood was collected every week (FIG. 36). Tumor growth was monitor by weekly assessment of circulating luciferase. Briefly, blood was collected and subsequently analyzed for luciferase expression using Nanolight Technologies Luciferase detection Kit. Luciferase expression (calculated as GLuc, RLU (Relative Luminescence Unit)) in the blood correlates with tumor engraftment.

[2] = test system: CD19.CAR and GD2.CAR T cells; test: CAR-T cell proliferation (fold increase compared to control cells); format: cell-based, human
Excerpt: Plasmids encoding for 2nd generation CAR specific for CD19 (Lenti-EF1a-CD19(FMC63)-2nd-CAR(CD28)-EGFRt) or GD2 (Lenti-EF1a-GD2(14G2a)-2nd-CAR(CD28)-EGFRt) were purchased from Creative Biolabs. The CAR containing plasmids were engineered to co-express a shRNA targeting USP16. The shRNA sequences are: shUSP16 #1 5′-[…]-3′ (SEQ ID NO: 8) and shUSP16 #2 5′-[…]-3′ (SEQ ID NO: 9). Primary T cells were activated as described (Example 3), transduced with a lentivirus encoding for either a CD19.CAR or a GD2.CAR co-expressing shUSP16 #1, shUSP16 #2 or a scrambled shRNA (Control). Cells were cultured in IL-2 and sorted between days 6-13 for EGFRt. Briefly, cells were stained with biotin EGFR antibody (R&D) and magnetically sorted with anti-biotin or streptavidin conjugated beads (Miltenyi Biotec) using the LS columns (Miltenyi Biotec). The positive population was isolated and expanded in regular TC-treated plates or in G-Rex 6 well culture plate (Wilson Wolf). The G-Rex platform was used to achieve a rapid expansion of T cells for in vitro and in vivo applications.
Primary T cells were activated as described (Example 3), transduced with a lentivirus encoding for either a CD19.CAR or a GD2.CAR co-expressing shUSP16 #1, shUSP16 #2 or a scrambled shRNA (Control). Cells were cultured in IL-2 and sorted between days 6-13 for EGFRt. Cells were plated post-sorting with a purity higher than 85% and counted every 2-4 days by Trypan Blue exclusion using Vi-CELL XR cell counter. Fifteen days post-activation both CD19.CAR and GD2.CAR T cells were collected, and qPCR was performed to verify downregulation of USP16 expression (FIG. 24) (fold change GD2.CAR (n=3): Control vs shUSP #1: 0.35, p<0.0001, and Control vs shUSP16 #2: 0.2452, p<0.0001, fold change CD19.CAR (n=4): Control vs shUSP #1: 0.2891, p<0.0001, and Control vs shUSP16 #2: 0.2566, p<0.0001). Proliferation was measured as fold increase compared to control cells at day 15 (FIG. 25).

## shUSP16 #1: shRNA targeting USP16, 5′-GACTGTAAGACTGACAATAAA-3′ (SEQ ID NO: 8), pSIH backbone or co-expressed in CAR plasmid
CHLA-55 cells
  CHLA-55 residual cells: 436500
  T cell number: 404709
[1]
  CHLA-55 engraftment, luciferase expression in blood (GLuc): 53279 RLU
[2]; CD19.CAR, day 15, n=4
  T cell expansion, fold change vs Control: 2.259
[2]; GD2.CAR, day 15, n=3
  T cell expansion, fold change vs Control: 2.147

## shUSP16 #2: shRNA targeting USP16, 5′-TATATCAGTTCACCCGTAAT-3′ (SEQ ID NO: 9), pSIH backbone or co-expressed in CAR plasmid
CHLA-55 cells
  CHLA-55 residual cells: 330610
  T cell number: 722634
[1]
  CHLA-55 engraftment, luciferase expression in blood (GLuc): 38968 RLU
[2]; CD19.CAR, day 15, n=4
  T cell expansion, fold change vs Control: 3.036
[2]; GD2.CAR, day 15, n=3
  T cell expansion, fold change vs Control: 3.036
